Earlier results as cited in US20250221938A1, “PHARMACEUTICAL COMPOSITION, METHODS FOR TREATING AND USES THEREOF” (Boehringer Ingelheim International GmbH, priority 2015, published 2025).
Where a name gives a salt, the structure may show the parent alone.

Conditions: metformin on its own, in the diabetic

SMILES: CN(C)C(=N)N=C(N)N [metformin, metformin hydrochloride]
- average improvement in the HbA1c value: 1.0-1.5%
